# Data published in BindingDB's records for doi:10.1021/jm0009641 (University of Bristol, 2000).
# pKi: −log10 of the molar value.
# Key:
# [1] = Displacement of radioligand [3H]- DPDPE on Opioid receptor delta 1 in monkey brain membranes
# [2] = Displacement of radioligand [3H]- DPDPE on Opioid receptor delta 1 in monkey brain membranes range; Value ranges from (34.0-43.2)
# [3] = Displacement of radioligand [3H]- U-69,593 on Opioid receptor kappa 1 in monkey brain membranes range; Value ranges from (9.7-14.2)
# [4] = Displacement of radioligand [3H]- DAMGO on Opioid receptor mu 1 in monkey brain membranes range; Value ranges from (0.32-0.91)
SMILES,pKi [1],pKi [2],pKi [3],pKi [4]
"O=C(/C=C/c1ccc(Cl)cc1)N[C@@]12CCC(=O)[C@@H]3Oc4c(O)ccc5c4[C@@]31CCN(CC1CC1)[C@@H]2C5 [1N-[4-cyclopropylmethyl-10-hydroxy-14-oxo-(17S)-12-oxa-4-azapentacyclo[9.6.1.01,13.05,17.07,18]octadeca-7,9,11(18)-trien-17-yl]-3-(4-chlorophenyl)-(E)-2-propenamide(Clocinnamox (C-CAM))]",8.80,–,–,–
"O=C(/C=C/c1ccc(Cl)cc1)NC12CCC(=O)C3Oc4cccc5c4[C@@]31CCN(CC1CC1)C2C5 (stereo partly drawn) [1N-[4-cyclopropylmethyl-14-oxo-(13R)-12-oxa-4-azapentacyclo[9.6.1.01,13.05,17.07,18]octadeca-7,9,11(18)-trien-17-yl]-3-(4-chlorophenyl)-(E)-2-propenamide]",–,7.43,7.92,9.27
"COc1ccc2c3c1O[C@H]1C(=O)CC[C@@]4(NC(=O)/C=C/c5ccc(Cl)cc5)[C@@H](C2)N(CC2CC2)CC[C@]314 [1N-[4-cyclopropylmethyl-10-methoxy-14-oxo-(13R)-12-oxa-4-azapentacyclo[9.6.1.01,13.05,17.07,18]octadeca-7,9,11(18)-trien-17-yl]-3-(4-chlorophenyl)-(E)-2-propenamide]",8.35,–,–,–
